Source: patent US7893252B2, “Selectively depolymerized galactomannan polysaccharide” (priority 2003, dated 2011)
“Also recorded” adds a separate entry of the source.

Experiments:
[1] = Biodistribution of 3H-galactomannan in tumor-bearing and non-tumor bearing mice (Example 6); type: in vivo
Experimental: The biodistribution of 3H-galactomannan was studied in tumor-bearing and non-tumor bearing mice. […] 3H-galactomannan elimination from plasma, kidneys, lungs and tumor in the various groups was rapid, an average of approximately 50% of the one-hour radioactivity was detected at six hours except in tumor-bearing mice, where the radioactivity in tumor samples from mice treated with 6 or 60 mg/kg of 3H-galactomannan with or without 5-FU averaged approximately 72% remaining after six hours. Elimination of 3H-galactomannan from the liver was more gradual than in other tissues, and on average, more than 50% of the radioactivity detected at one hour after injection was still present at 24 hours.
Male NCr-nu athymic nude mice (Charles Rivers Laboratories, Raleigh, N.C.) were acclimated and housed as described above. The first set of animals (a total of 18 mice) were non-tumored mice. The second set of 18 mice were tumored as follows. […]
Tritiation of GM from G. triacanthos was performed as follows. […] Total yield of the labeled GM was 3.8 mCi, specific radioactivity was 300 μCi/mg.
All 36 mice, divided into 18 groups, were given a single intravenous injection of cold or tritiated GM (either 6 or 60 mg/kg) or of a combination of GM (60 mg/kg, cold or tritiated) and 5-FU (114 mg/kg) on the same day. Non-labeled GM was formulated in saline, and tritiated GM was added to the solution so that each animal received 10 μCi of radioactivity. […] All dosing solutions (100 μL each) were counted in duplicate. […]
After weighing, livers were dissolved in 10 mL of Soluene 350 (Packard Instruments, Downers Grove, Ill.) and incubated first for 4 hrs at 50° C., and at room temperature, until tissues were solubilized. One millilter of the resulting solution was counted in a scintillation counter as a single sample. Based on tissue weight and the sample volume, the number of μCi of tritiated GM per gram of tissue was calculated.
Kidneys were treated in the same manner, but dissolved in 2 mL of Soluene. […] Plasma samples (50 μL each) were placed direct into Safety Solve and counted as a single sample. […]

[2] = system: Salmonella typhimurium strains TA97a, TA98, TA100, TA1535 and Escherichia coli strain WP2 uvrA (pKM101); assay: Ames bacterial reverse mutation assays; type: cell-based; details: in the presence and absence of an exogenous metabolic activation system
Experimental: Mutagenicity studies were conducted and included two Ames bacterial reverse mutation assays in which the galactomannan of the invention was evaluated by itself in the first study and combined with 5-FU in the second study. The test articles in both studies were evaluated in bacterial assays using Salmonella typhimurium strains TA97a, TA98, TA100, TA1535 and Escherichia coli strain WP2 uvrA (pKM101), both in the presence and absence of an exogenous metabolic activation system.

[3] = system: COLO 205 human colon tumor xenografts; assay: Efficacy and compatibility with leucovorin in COLO 205 human colon tumor xenografts, q4d×4 (Example 4)
Experimental: The principal differences with the study described in Example 3 were that (a) the galactomannan was from another source, of a different size (molecular weight) and with a different Man/Gal ratio, (b) there were four consecutive injections, not three, (c) there were four doses of the galactomannan tested, not one, (d) 5-FU was administered (i.v.) in 48 mg/kg/dose, not 75 mg/kg/dose, as in the first study, and (e) galactomannan (i.v. injection) was compared with leucovorin (oral gavage, administered two hours after 5-FU) in terms of efficacy and toxicity. […] 5-FU alone was administered i.v. on the same q4d×4 treatment schedule at dosages of 48 mg/kg/dose. 5-FU was formulated in saline fresh on each day of treatment at a concentration of 4.8 mg/mL, at pH 9.2. […] Leucovorin powder (clinical formulation, Leucovorin calcium for injection) was reconstituted with water for injection to yield a concentration of 10 mg/mL. On each day of treatment the stock solution was diluted with water for injection to yield a concentration of 2.5 mg/mL.
Two more combination-treatment groups were also included in the study. One group of mice was treated with 5-FU (48 mg/kg/dose, i.v., q4d×4), followed by oral gavage (p.o.) with leucovorin, administered two hours after 5-FU at a dosage of 25 mg/kg/dose. Another two groups of mice were treated with 5-FU in a combination with the galactomannan (48 mg/kg/dose and 120 mg/kg/dose, respectively, i.v., q4d×4), followed by p.o. leucovorin treatment, administered at a dosage of 25 mg/kg/dose two hours after 5-FU plus the galactomannan.
There were a total of nine groups of 10 animals each, s.c.-implanted with COLO 205 human colon tumor xenografts.

dogs = assay: Acute toxicology, single IV injection in dogs; type: in vivo; details: 5-FU 28.5 mg/kg, galactomannan 15 mg/kg, combination 28.5/15 mg/kg
Experimental: Acute toxicology studies of the galactomannan of the present invention were performed in mice, rats and dogs and subchronic toxicology studies were performed in rats and dogs. The following is a summary of the findings of these studies:
The surviving dogs remained clinically normal and had no treatment-related changes in body weight, feed consumption, ECG tracings, clinical pathology or gross tissue changes during the 21-day study period.

[4] = i.v. q4d×4, 5-FU 48 mg/kg/dose, GM 120 mg/kg/dose

For “(((1,4)-linked β-D-mannopyranose)17-((1,6)-linked-β-D-galactopyranose)10)12) [GM]”, which “increase of the amount of bound galactomannan for the 10-times higher dose” value ([1]; 60 mg/kg versus 6 mg/kg) is on record?
Its value is 10 fold.

What about the saturation of binding ([1]; 6 to 60 mg/kg (18 to 180 mg/m2)) of the same substance?
Its saturation of binding is “did not reach saturation”.

And the “binding to liver, kidney, lung, tumor, and plasma” value ([1]; single i.v. injection, 6 or 60 mg/kg)?
The value was “freely binds”.

What about the mutagenic activity ([2]; listed as galactomannan) of the same substance?
The mutagenic activity was “not mutagenic”.

And the mutagenic activity ([2]; listed as galactomannan of the invention)?
Its mutagenic activity is “No evidence of mutagenic activity”.

And the “tumor growth delay / tumor regression after 13 days” value ([3]; GM 120 mg/kg/dose alone, q4d×4)?
The value was “did not delay growth; also recorded: No tumor regression”.

And the “median to quadrupling of tumor volume” value [3, 4]?
Its value is 6.9 days.

What about the “median tumor volume after 13 days” value [3, 4] of the same substance?
The value was 1152 mm3.

And the death (dogs)?
Its death is 0/2.
